This is an account of results in US20120058499A1, “Bioluminescent Detection of Protease Activity” (priority 2010, published 2012).

Series [1] concerns Otub2, JosD1, JosD2, AMSH, Ataxin3, Ataxin3-like, UCHL5, USP20, and USP14. The series can be described thus: Substrate comparison on panel of nine isopeptidases. The format is biochemical. The following applies: seven of nine DUBs (exceptions JosD2 and UCHL5). On the procedure: (§1) For Ub-AMC and Ub-Rhodamine110, all enzymes were diluted into 50 mM Tris, pH 8.0, 5 mM DTT, 0.05% CHAPS to a final concentration of 10 nM. […] Either Ub-AMC or Ub-Rhodamine110 (final reaction concentration equal to 250 nM) were diluted into 50 mM Tris, pH 8.0, 5 mM DTT, 0.05% (w/v) CHAPS. […] For Ub-Rhodamine110, fluorescence was monitored with filters corresponding to excitation at 485 nm and emission at 531 nm.

The target in the next series is Ataxin3 (Homo sapiens, UniProt P54252). The series can be described thus: Platform comparison of DUB substrates, signal to background. The format is biochemical. The note with it: DUB 10 nM; signal at 30 minutes; Ub-LUC 100 nM, DUB-Glo substrate 20 μM, Ub-AMC/Ub-rho 250 nM. On the procedure:
as §1

The next series addresses JosD1 (Homo sapiens, UniProt Q15040). Described as above. The format is biochemical. The note with it: DUB 10 nM; signal at 30 minutes; Ub-LUC 100 nM, DUB-Glo substrate 20 μM, Ub-AMC/Ub-rho 250 nM. On the procedure:
as §1

The target in the next series is T1, UCHL5 (Homo sapiens, UniProt Q9Y5K5).
T1 sequence (Q9Y5K5 1-329): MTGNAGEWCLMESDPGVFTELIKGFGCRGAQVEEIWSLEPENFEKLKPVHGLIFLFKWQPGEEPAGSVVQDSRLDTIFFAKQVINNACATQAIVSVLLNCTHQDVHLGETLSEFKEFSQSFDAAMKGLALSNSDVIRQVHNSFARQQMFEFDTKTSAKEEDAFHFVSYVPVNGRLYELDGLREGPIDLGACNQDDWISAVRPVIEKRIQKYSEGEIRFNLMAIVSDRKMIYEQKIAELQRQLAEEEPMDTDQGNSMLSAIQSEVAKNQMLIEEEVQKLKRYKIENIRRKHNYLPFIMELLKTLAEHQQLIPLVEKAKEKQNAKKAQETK
Described as above. The format is biochemical. The following applies: DUB 10 nM; signal at 30 minutes; Ub-LUC 100 nM, DUB-Glo substrate 20 μM, Ub-AMC/Ub-rho 250 nM. The procedure: as §1

A further series concerns the target T2, Ataxin3-like (Homo sapiens, UniProt Q9H3M9).
T2 sequence (Q9H3M9 1-355): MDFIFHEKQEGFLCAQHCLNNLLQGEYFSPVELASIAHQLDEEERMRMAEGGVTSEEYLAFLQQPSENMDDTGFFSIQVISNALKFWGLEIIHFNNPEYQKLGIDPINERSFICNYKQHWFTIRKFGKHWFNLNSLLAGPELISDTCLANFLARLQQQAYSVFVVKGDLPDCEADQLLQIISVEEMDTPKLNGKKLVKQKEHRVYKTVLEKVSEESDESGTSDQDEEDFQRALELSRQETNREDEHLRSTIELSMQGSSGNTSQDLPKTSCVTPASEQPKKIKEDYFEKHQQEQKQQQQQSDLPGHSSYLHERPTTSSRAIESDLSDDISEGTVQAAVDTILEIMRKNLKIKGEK
The description is as above. The format is biochemical. The note with it: DUB 10 nM; signal at 30 minutes; Ub-LUC 100 nM, DUB-Glo substrate 20 μM, Ub-AMC/Ub-rho 250 nM. On the procedure: as §1

The target in another series is T3, Otub2 (Homo sapiens, UniProt Q96DC9).
T3 sequence (Q96DC9 1-234): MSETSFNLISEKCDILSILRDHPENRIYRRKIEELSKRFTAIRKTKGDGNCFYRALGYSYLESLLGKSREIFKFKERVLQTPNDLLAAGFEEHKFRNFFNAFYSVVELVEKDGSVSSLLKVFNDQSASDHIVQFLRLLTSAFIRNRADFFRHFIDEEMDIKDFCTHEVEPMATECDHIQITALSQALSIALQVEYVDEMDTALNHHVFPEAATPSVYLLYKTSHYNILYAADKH
The series is described as above. Type of series: biochemical. The note with it: DUB 10 nM; signal at 30 minutes; Ub-LUC 100 nM, DUB-Glo substrate 20 μM, Ub-AMC/Ub-rho 250 nM. The procedure: as §1

The target of the next series is T4, JosD2 (Homo sapiens, UniProt Q8TAC2).
T4 sequence (Q8TAC2 1-188): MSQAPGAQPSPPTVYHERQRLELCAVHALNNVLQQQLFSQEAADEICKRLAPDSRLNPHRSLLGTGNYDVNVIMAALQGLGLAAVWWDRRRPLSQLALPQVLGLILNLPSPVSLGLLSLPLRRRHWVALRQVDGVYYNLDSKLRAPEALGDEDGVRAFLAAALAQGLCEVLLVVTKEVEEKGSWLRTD
The series is described as above. The format is biochemical. The following applies: DUB 10 nM; signal at 30 minutes; Ub-LUC 100 nM, DUB-Glo substrate 20 μM, Ub-AMC/Ub-rho 250 nM. The procedure: as §1

Another series has as its target T5, AMSH (Homo sapiens, UniProt O95630).
T5 sequence (O95630 1-424): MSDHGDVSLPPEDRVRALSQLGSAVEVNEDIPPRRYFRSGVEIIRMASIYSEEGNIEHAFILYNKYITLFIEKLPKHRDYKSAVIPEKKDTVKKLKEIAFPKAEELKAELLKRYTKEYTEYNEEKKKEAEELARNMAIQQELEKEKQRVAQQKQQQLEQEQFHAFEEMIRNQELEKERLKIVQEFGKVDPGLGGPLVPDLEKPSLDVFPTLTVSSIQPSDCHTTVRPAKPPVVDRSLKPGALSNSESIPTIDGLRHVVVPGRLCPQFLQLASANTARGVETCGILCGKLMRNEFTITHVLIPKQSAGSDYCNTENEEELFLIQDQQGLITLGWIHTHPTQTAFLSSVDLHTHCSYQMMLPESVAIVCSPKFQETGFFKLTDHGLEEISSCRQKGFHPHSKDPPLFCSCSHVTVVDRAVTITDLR
The series is described as above. Type of series: biochemical. The note with it: DUB 10 nM; signal at 30 minutes; Ub-LUC 100 nM, DUB-Glo substrate 20 μM, Ub-AMC/Ub-rho 250 nM. The procedure:
as §1

The target in the next series is T6, isopeptidase T (Homo sapiens, UniProt P45974).
T6 sequence (P45974 1-858): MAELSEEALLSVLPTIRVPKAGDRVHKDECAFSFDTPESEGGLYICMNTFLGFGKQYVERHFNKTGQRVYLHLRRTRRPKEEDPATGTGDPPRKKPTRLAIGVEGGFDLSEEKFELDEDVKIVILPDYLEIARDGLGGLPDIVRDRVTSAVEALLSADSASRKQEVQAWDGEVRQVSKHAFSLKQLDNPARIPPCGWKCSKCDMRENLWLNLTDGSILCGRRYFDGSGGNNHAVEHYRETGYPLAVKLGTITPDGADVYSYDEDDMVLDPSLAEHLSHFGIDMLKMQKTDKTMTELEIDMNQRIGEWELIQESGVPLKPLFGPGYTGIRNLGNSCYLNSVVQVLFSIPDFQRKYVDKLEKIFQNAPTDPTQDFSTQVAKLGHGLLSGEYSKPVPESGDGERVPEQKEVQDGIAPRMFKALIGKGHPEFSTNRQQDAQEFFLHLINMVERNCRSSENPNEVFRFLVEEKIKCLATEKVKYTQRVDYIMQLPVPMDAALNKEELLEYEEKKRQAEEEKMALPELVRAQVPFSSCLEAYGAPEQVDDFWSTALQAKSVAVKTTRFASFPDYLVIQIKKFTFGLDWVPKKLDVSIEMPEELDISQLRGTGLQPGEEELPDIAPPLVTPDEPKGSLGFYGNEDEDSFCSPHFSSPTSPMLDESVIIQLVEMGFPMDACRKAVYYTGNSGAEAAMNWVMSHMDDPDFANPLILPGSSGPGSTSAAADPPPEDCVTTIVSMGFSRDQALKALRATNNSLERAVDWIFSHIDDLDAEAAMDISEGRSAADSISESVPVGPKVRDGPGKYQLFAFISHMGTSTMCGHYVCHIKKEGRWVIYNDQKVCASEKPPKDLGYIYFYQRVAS
The note with it: Dang et al., 1998; cited from earlier work.

Another series concerns the target USP14 (Homo sapiens, UniProt P54578). The series can be described thus: Platform comparison of DUB substrates, signal to background. The format is biochemical. The note with it: DUB 10 nM; signal at 30 minutes; Ub-LUC 100 nM, DUB-Glo substrate 20 μM, Ub-AMC/Ub-rho 250 nM. On the procedure: as §1

Chain of Ataxin3 (P54252 whole entry, species assumed): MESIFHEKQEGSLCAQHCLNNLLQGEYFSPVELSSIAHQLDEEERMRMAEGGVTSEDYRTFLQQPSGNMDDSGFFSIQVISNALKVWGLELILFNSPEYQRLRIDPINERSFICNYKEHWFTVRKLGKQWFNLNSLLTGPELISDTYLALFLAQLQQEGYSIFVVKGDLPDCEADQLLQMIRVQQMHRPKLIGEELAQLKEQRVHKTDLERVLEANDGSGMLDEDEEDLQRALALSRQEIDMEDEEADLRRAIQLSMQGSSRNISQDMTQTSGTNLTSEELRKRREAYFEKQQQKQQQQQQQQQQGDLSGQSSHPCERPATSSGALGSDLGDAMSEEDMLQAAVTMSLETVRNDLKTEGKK
Chain of USP14 (P54578 whole entry, species assumed): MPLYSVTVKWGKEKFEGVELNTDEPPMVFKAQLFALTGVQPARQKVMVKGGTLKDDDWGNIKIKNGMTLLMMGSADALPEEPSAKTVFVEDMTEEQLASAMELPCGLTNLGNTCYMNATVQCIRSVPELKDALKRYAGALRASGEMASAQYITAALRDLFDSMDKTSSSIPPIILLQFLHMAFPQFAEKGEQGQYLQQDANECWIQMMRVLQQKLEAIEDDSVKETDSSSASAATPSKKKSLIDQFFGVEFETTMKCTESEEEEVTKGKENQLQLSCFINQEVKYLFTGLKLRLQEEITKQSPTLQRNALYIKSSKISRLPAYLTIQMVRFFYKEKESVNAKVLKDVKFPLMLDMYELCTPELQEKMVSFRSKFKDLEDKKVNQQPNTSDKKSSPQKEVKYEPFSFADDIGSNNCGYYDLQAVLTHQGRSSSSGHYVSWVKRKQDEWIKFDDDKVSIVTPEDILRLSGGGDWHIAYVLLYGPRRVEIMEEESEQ

Take ubiquitin-rhodamine110 [Ub-rho]: the “detectable activity (S/B>3)” value in [1] (listed as Ub-Rhodamine110) is listed as “no detectable activity”; in series [1] (listed as Ub-rhodamine110), “little to no detectable activity”. Also, the “Signal to Background value” at Ataxin3 came out at 1.3; on JosD1, 1.5; on UCHL5 it was 103; on Ataxin3-like, 1.6; on Otub2 it was 1.7; at JosD2, 8.2. The “Signal to Background value” on AMSH was 1.2.
In the case of “ubiquitin-7-amino-4-methylcoumarin [Ub-AMC]”, the “detectable activity (S/B>3)” value in series [1] is on record as “little to no detectable activity”. Further, in the series with isopeptidase T, the “relative catalytic efficiency (kcat/Km), fold higher than AMC derivative of Z-Leu-Arg-Gly-Gly peptide” value is reported as roughly 8000 fold. Moreover, the “Signal to Background value” at Ataxin3 is recorded as 0.9; on JosD1, 1.1; on UCHL5, 8.1; on Ataxin3-like, 1.1; at Otub2 it was 1.2; on JosD2, 2.1. In addition, the “Signal to Background value” at USP14 and at AMSH was 1.0 in each case.
